Laboratory results reported in PMC3791137 (Journal of the American Chemical Society, 2013).

Key:
[1] = common buffers, physiological pH; cited from earlier work
NSCs = experiment: Sin-1-induced ZBR1 fluorescence change; assay type: cell-based, rat; settings: 100 μM Sin-1, first 15 min; vehicle 105 ± 7%
[2] = pH 9.5, excitation 572 nm; cited from earlier work

SMILES | Half-life [1] | Fluorescence intensity of ZBR1 after Sin-1 (NSCs) | Quantum yield (standard) [2]
N=c1c[n+](N2CCOCC2)[n-]o1 [Sin-1, 3-morpholinosydnonimine] | 14 to 26 min | 89 ± 4% | 
O=c1ccc2nc3ccc(O)cc3oc-2c1 [resorufin] |  |  | 0.74
